According to patent US12029727B2, “Combinations and methods for the treatment of neuropathic pain” (priority 2016, dated 2024):

Assays:
[1] = system: neuropathic pain model induced by L5/L6 spinal nerve ligation (tactile allodynia); settings: rat, in vivo, po
Description: Antineuropathic effect of a combination of pregabalin and alpha lipoic acid through the neuropathic pain model induced by L5/L6 spinal nerve ligation in rat was determined.
Wistar female rats with a body weight of 120-140 g were used for all experiments. Animals were kept under temperature controlled conditions (22° C.) and water and food were given ad-libitum in experimentation rooms.
Both pregabalin and alpha lipoic acid were suspended in a 0.5% carboxymethylcellulose isotonic saline solution. Individual drugs or in combination were prepared and administered just before starting the experiment.
Rats were prepared according to the method described by Kim S H, Chung J M. 1992. […]
Tactile allodynia was determined according to the previously described method by Chaplan S R, Bach F W, Pogrel J W, Chung J M, Yaksh T L. 1994. […] Paw withdrawal mechanical threshold was measured immediately after and a systemic administration of drugs was carried out. Later, paw withdrawal mechanical threshold was measured at 0.5, 1, 2, 3, 4, 5, 6, 7 and 8 hours. […]
Graphs of 50% withdrawal threshold in grams (g) in function of time (minutes) were prepared from data obtained. Area under curve was determined from these graphs through trapezoidal method and % of maximum possible effect (% MEP) was calculated using the following formula: % MEP=(Drug AUC−Neuropathic AUC)/(Sham AUC−Neuropathic AUC)×100 […]

[2] = Safety/tolerability observations in treated rats; settings: 30 mg/Kg dose
Description: Wistar female rats with a body weight of 120-140 g were used for all experiments. Animals were kept under temperature controlled conditions (22° C.) and water and food were given ad-libitum in experimentation rooms. Experiments were carried out according to the guidelines on ethical issues on experimental pain research in animals (Zimmermann M. 1983. Ethical guidelines for investigations of experimental pain in conscious animals. Pain. 16:109-110).

Row | SMILES | ED50 [1] | adverse signs observed [2]
1 | O=C(O)CCCCC1CCSS1 (stereo not drawn) [alpha lipoic acid] | 57.5 ± 5.59 mg/kg | –
2 | CC(C)C[C@H](CN)CC(=O)O [pregabalin] | 2.45 ± 0.23 mg/kg | sedation and motor discoordination
